Laboratory results taken from patent US8952222B2, “Herbicide resistant sunflower plants derived from RW-B cultivar” (Anglo Netherlands Grain B.V., priority 2008, dated 2015).
Several values for one entry are separate records, joined by “and”; a condition that tells them apart may be missing. Equal values may be shown once. Marks after values point to notes of the source that are not given here.

Experiments:
Type in all cases: in vivo
sunflower line B770 [1] = test: Whole plant dose response to metsulfuron; conditions: 14 DAT; for Dry weight (as a % of the untreated plants): above ground biomass, line Suscp; for Phytotoxicity Index: line B770 (WT-Susceptible), scale 0-9
sunflower line B770imi = test: Whole plant dose response to metsulfuron; conditions: line B770IMI (A205V), 14 DAT; for Dry weight (as a % of the untreated plants): above ground biomass; for Phytotoxicity Index: scale 0-9
Method: (§1) Seeds were sown in Petri dishes and, after germination, plantlets were transplanted to pots of 10 cm of diameter in a potting media consisting of equal parts of vermiculite, soil and sand. Plants were grown in a greenhouse under natural light conditions supplemented with 400 W sodium halide lamps to provide a 16 hr daylight. Day/night temperatures were 25 and 20° C., respectively. […] Experiment was arranged as a randomized block design with a full factorial (sunflower line x treatment) arrangement of treatments and 10 replications.
(§2) On the day of herbicide application ten plants of each genotype were cut at the cotyledonal node and dried at 60° C. for 48 hrs for zero-time dried weight determination.
(§3) […] Above ground biomass data from each line were converted to biomass accumulation after application by subtracting the appropriate average zero-time biomass from each sample. Dry biomass data were converted to percentages of the untreated control plants within each line to allow direct comparisons between groups. […] Plants without any symptoms were recorded as “0”, increasing levels of stunting and chlorosis with respect to the untreated control plants were recorded as “1” to “4”, increasing levels of leaf abnormalities and leaf necrosis were recorded from “5” to “8”, and dead plants with total necrosis of the apex were recorded as “9”.

sunflower line SuBL = test: Whole plant dose response to metsulfuron; conditions: line SuBL (P197L), 14 DAT; for Dry weight (as a % of the untreated plants): above ground biomass; for Phytotoxicity Index: scale 0-9
Method: as §1, §2, §3

sunflower line RW-B [2] = test: Whole plant dose response to metsulfuron; conditions: line RW-B (W574L), 14 DAT; for Dry weight (as a % of the untreated plants): above ground biomass; for Phytotoxicity Index: scale 0-9
Method: as §1, §2, §3

sunflower line B770 [3] = test: Greenhouse spray with imazapyr, visual inspection for injury; conditions: imazapyr 80 gr ai/ha, two weeks after treatment
Method: (§4) 300 seeds of a wild sunflower population known to be tolerant to IMIs were sown under greenhouse conditions at Nidera Experimental Station in Venado Tuerto, Santa Fe, Argentina, together with the control lines HA89, B770 (Susceptible—[…]), BTI-M1 and RHA426 (Resistant—“R”). At the V4 stage all the plants were sprayed with imazapyr at a rate of 80 gr ai/ha. Two weeks after treatment, all the plants were evaluated by visual inspection for injury. S lines HA89 and B770 were killed by the treatment. […] In total, […] plants of the wild population resisted the herbicide treatment and 129 were killed (categorized as S).
One R plant (RW-73) was used as male in crosses with the cultivated susceptible lines HA89 and B770. Ten to 20 F1 plants from each cross were sprayed with imazapyr at a rate of 80 gr ai/ha, using B770 (S) and BTI-M1 (R) as controls. […] However, imazapyr treatment killed the B770 plants.

sunflower line B770 [4] = test: Whole plant dose response to imazapyr; conditions: line B770 (WT-Susceptible), 14 DAT; for Dry weight (as a % of the untreated plants): above ground biomass; for Phytotoxicity Index: scale 0-9
Method: (§5) Seeds were sown in Petri dishes and, after germination; plantlets were transplanted to pots of 10 cm of diameter in a potting media consisting of equal parts of vermiculite, soil and sand. Plants were grown in a greenhouse under natural light conditions supplemented with 400 W sodium halide lamps to provide a 16 hr day-length. Day/night temperatures were 25 and 20° C., respectively. At the V2-V4 stage (Schneiter & Miller, 1981) 10 plants of each genotype were randomly assigned to each treatment consisting of eight imazapyr doses (0, 40, 80, 160, 320, 480, 640 and 800 g ai/ha, without treatment, 0.5×, 1×, 2×, 4×, 6×, 8× and 10× respectively), and a zero-time biomass determination. Experiment was arranged as a randomized block design with a full factorial (sunflower line x treatment) arrangement of treatments and 10 replications.
as §2
(§6) The remaining plants were maintained for 14 days after imazapyr treatment (DAT) and their height, Phytotoxicity Index (PI) and above ground dry biomass were determined. Height was determined as the distance between the cotyledonal node and the apex of each plant. Above ground biomass data from each line were converted to biomass accumulation after application by subtracting the appropriate average zero-time biomass from each sample. Dry biomass data were converted to percentages of the untreated control plants within each line to allow direct comparisons between groups. […] Plants without any symptoms were recorded as “0”, increasing levels of stunting and chlorosis with respect to the untreated control plants were recorded as “1” to “4”, increasing levels of leaf abnormalities and leaf necrosis were recorded from “5” to “8”, and dead plants with total necrosis of the apex were recorded as “9”.

sunflower line RW-B [5] = test: Whole plant dose response to imazapyr; conditions: from 4x to 10x rates of herbicide application, 14 DAT
Method: as §5, §2, §6

sunflower line RHA426 [6] = test: Allelism test, challenge with imazapyr; conditions: control line RHA426; imazapyr 320 g a.i. ha-1 at V2-V4
Source text: RW-B plants were crossed with RHA426 in order to determine if the resistant gene in RW-B is allelic to Imr1, the mutation previously described in imidazolinone resistant inbred lines. In this cross, F1 hybrids plants were self pollinated and backcrossed to RHA426 to obtain the F2 and BC1F1 generations, respectively. Plants from the parents and from F1, F2 and BC were challenged with 160 g a.i. ha^−1 and 320 g a.i. ha^−1 of imazapyr at the V2-V4 stage. Post challenge, plants were scored as described above.
On the other hand, when F2 and BC populations were scored after applying herbicide at the higher rate (320 g a.i. ha^−1), segregation for susceptibility could be observed. Only two phenotypic classes were detected, a resistant class composed of plants that were without any sign of injury or only slight symptoms, and a susceptible phenotype that was killed at this dose in much the same way as the control line RHA426.

sunflower line RHA426 [7] = test: Greenhouse spray with imazapyr, visual inspection for injury; conditions: imazapyr 80 gr ai/ha at V4, two weeks after treatment
Method: as §4

sunflower line BTI-M1 = test: as above; conditions: imazapyr 80 gr ai/ha at V4, two weeks after treatment
Method: as §4

sunflower line HA89 = test: as above; conditions: imazapyr 80 gr ai/ha at V4, two weeks after treatment
Method: as §4

## COc1nc(C)nc(NC(=O)NS(=O)(=O)c2ccccc2C(=O)O)n1 [metsulfuron]
Sunflower line B770 [1]; metsulfuron 0.5x = 2.5 g ai/ha
  Dry weight (as a % of the untreated plants): 23.7^d %
  Phytotoxicity Index: 9^a
Sunflower line B770 [1]; metsulfuron 1x = 5 g ai/ha
  Dry weight (as a % of the untreated plants): 20^d %
  Phytotoxicity Index: 9^a
Sunflower line B770 [1]; metsulfuron 2x = 10 g ai/ha
  Dry weight (as a % of the untreated plants): 19.4^d %
  Phytotoxicity Index: 9^a
Sunflower line B770 [1]; metsulfuron 3x = 15 g ai/ha
  Dry weight (as a % of the untreated plants): 19.2^d %
  Phytotoxicity Index: 9^a
Sunflower line B770 [1]; metsulfuron 4x = 20 g ai/ha
  Dry weight (as a % of the untreated plants): 19.4^c %
  Phytotoxicity Index: 9^a
Sunflower line B770imi; metsulfuron 0.5x = 2.5 g ai/ha
  Dry weight (as a % of the untreated plants): 42^c %
  Phytotoxicity Index: 3.3^b
Sunflower line B770imi; metsulfuron 1x = 5 g ai/ha
  Dry weight (as a % of the untreated plants): 30.1^c %
  Phytotoxicity Index: 5.2^b
Sunflower line B770imi; metsulfuron 2x = 10 g ai/ha
  Dry weight (as a % of the untreated plants): 30.4^c %
Sunflower line B770imi; metsulfuron 3x = 15 g ai/ha
  Dry weight (as a % of the untreated plants): 30^c %
  Phytotoxicity Index: 9^a
Sunflower line B770imi; metsulfuron 4x = 20 g ai/ha
  Dry weight (as a % of the untreated plants): 30.2^b %
  Phytotoxicity Index: 9^a
Sunflower line SuBL; metsulfuron 0.5x = 2.5 g ai/ha
  Dry weight (as a % of the untreated plants): 83.3% and 83.3^b %
Sunflower line SuBL; metsulfuron 1x = 5 g ai/ha
  Dry weight (as a % of the untreated plants): 72.4^b %
Sunflower line SuBL; metsulfuron 2x = 10 g ai/ha
  Dry weight (as a % of the untreated plants): 52.2^b %
  Phytotoxicity Index: 4.3^c
Sunflower line SuBL; metsulfuron 3x = 15 g ai/ha
  Dry weight (as a % of the untreated plants): 35.7^b %
  Phytotoxicity Index: 7.2^b
Sunflower line SuBL; metsulfuron 4x = 20 g ai/ha
  Dry weight (as a % of the untreated plants): 30.3% and 30.3^b %
Sunflower line RW-B [2]; metsulfuron 2x = 10 g ai/ha
  Dry weight (as a % of the untreated plants): 73.9^a %
  Phytotoxicity Index: 1.1^d
Sunflower line RW-B [2]; metsulfuron 3x = 15 g ai/ha
  Dry weight (as a % of the untreated plants): 60.7^a %
  Phytotoxicity Index: 2.8^c
Sunflower line RW-B [2]; metsulfuron 4x = 20 g ai/ha
  Dry weight (as a % of the untreated plants): 38.1^a %
Sunflower line RW-B [2]; metsulfuron 0.5x = 2.5 g ai/ha
  Phytotoxicity Index: 0^c
Sunflower line RW-B [2]; metsulfuron 1x = 5 g ai/ha
  Phytotoxicity Index: 0.6^d

## CC(C)C1(C)N=C(c2ncccc2C(=O)O)NC1=O (stereo not drawn) [imazapyr]
Sunflower line B770 [3]
  injury by visual inspection: killed
Sunflower line B770 [4]; imazapyr 0.5x = 40 g ai/ha
  Dry weight (as a % of the untreated plants): 32.7^d %
  Height (as % of the untreated plants): 35.0% and 35.0^c %
  Phytotoxicity Index: 8.9^a
Sunflower line B770 [4]; imazapyr 1x = 80 g ai/ha
  Dry weight (as a % of the untreated plants): 30.2^d %
  Height (as % of the untreated plants): 31.8^c %
  Phytotoxicity Index: 9^a
Sunflower line B770 [4]; imazapyr 2x = 160 g ai/ha
  Dry weight (as a % of the untreated plants): 27.6^d %
  Height (as % of the untreated plants): 31.9^d %
  Phytotoxicity Index: 9^a
Sunflower line B770 [4]; imazapyr 4x = 320 g ai/ha
  Dry weight (as a % of the untreated plants): 26.5^d %
  Height (as % of the untreated plants): 31.9^d %
  Phytotoxicity Index: 9^a
Sunflower line B770 [4]; imazapyr 6x = 480 g ai/ha
  Dry weight (as a % of the untreated plants): 25.9^d %
  Height (as % of the untreated plants): 31.6^d %
  Phytotoxicity Index: 9^a
Sunflower line B770 [4]; imazapyr 8x = 640 g ai/ha
  Dry weight (as a % of the untreated plants): 25.7^d %
  Height (as % of the untreated plants): 31.7^d %
  Phytotoxicity Index: 9^a
Sunflower line B770 [4]; imazapyr 10x = 800 g ai/ha
  Dry weight (as a % of the untreated plants): 25.2^d %
  Height (as % of the untreated plants): 31.4^c %
  Phytotoxicity Index: 9^a
Sunflower line RW-B [5]
  height, % of the untreated control plants: 75%
Sunflower line RHA426 [6]
  response to imazapyr: killed
Sunflower line RHA426 [7]
  injury by visual inspection: signs of chlorosis
Sunflower line BTI-M1
  injury by visual inspection: did not present any signs of damage
Sunflower line HA89
  injury by visual inspection: killed
